Reference: US20220153734A1, “Pyrazolopyridine Compounds For IRE1 Inhibition” (Optikira, LLC, priority 2019, published 2022)

Tests used:
IRE1α = biological target: T1, IRE1α (Homo sapiens, UniProt O75460); experiment: Biochemical assay: inhibition of RNase activity of IRE1α; conditions: enzyme 0.325 nM, substrate 100 nM, 20 minutes
T1 construct: purchased Signal Chem E31-11G
Protocol: Biochemical Assay: Inhibition of RNase Activity of IRE1α
The RNase reactions were performed in 384 well black ProxiPlate-384 Plus plates (PERKIN Elmer) using 50 mM Tris assay buffer with 0.5 mM MgCl2, 10 mM KCl, 0.03% Tween, 2 mM DTT and 1% DMSO. Test compounds were prepared on the day of assay and dispensed using D300 digital dispenser as a 10-point ½ log dilution series in duplicate, normalized to a final DMSO concentration of […]. Test compounds were pre-incubated for 30 min at room temperature with IRE1α kinase (E31-11G from Signal Chem) in 2.5 μL of assay buffer. Then 2.5 μl of assay buffer containing substrate (5′ Alexa Fluor 647-rCrArU rGrUrC rCrGrC rArGrC rGrCrArUrG-Iowa Black RQ quencher 3′) added, giving a final concentration of enzyme of 0.325 nM and of substrate of 100 nM. After 20 minutes incubation at room temperature the reactions were stopped by added 5 μL of 5M urea, incubated at room temperature for 10 minutes and fluorescence measured on a plate reader (EnVision, PerkinElmer). IC50 values calculated by fitting a sigmoidal curve to percent inhibition of control versus compound concentration.

[1] = tested on: ARPE-19 cells stably expressing XBP1 (a.a. 1-376); experiment: Cellular XBP1 splicing assay (NanoLuc luciferase, thapsigargin); assay type: cell-based; conditions: thapsigargin 150 nM, 4 hour
Protocol: Cellular XBP1 Splicing Assay
ARPE-19 cells stably expressing XBP1 (a.a. 1-376) with nano-luciferase gene sequence linked so it is in frame when XBP1 is spliced, were cultured in F12 media, 10% FBS, 0.044% sodium bicarbonate, 150 μg/ml hygromycin B and seeded for assays at 5,000 cells in 384 well plates in culture media without hygromycin B and incubated at 37° C./5% CO2. After overnight incubation test compounds were added to the cell plate in a 10-point ½ log dilution series in duplicate (final DMSO concentration 0.117%). After further incubation of 30 minutes thapsigargin was added (final concentration 150 nM) and then another 4 hour incubation. A NanoLuc luciferase assay (Promega) was used according to the manufacturer's instructions to detect the luciferase and luminescence measured on a luminometer (EnVision, PerkinElmer). IC50 values calculated by fitting a sigmoidal curve to percent inhibition of control of compound concentration.

T1 sequence (O75460 468-977 limits assumed): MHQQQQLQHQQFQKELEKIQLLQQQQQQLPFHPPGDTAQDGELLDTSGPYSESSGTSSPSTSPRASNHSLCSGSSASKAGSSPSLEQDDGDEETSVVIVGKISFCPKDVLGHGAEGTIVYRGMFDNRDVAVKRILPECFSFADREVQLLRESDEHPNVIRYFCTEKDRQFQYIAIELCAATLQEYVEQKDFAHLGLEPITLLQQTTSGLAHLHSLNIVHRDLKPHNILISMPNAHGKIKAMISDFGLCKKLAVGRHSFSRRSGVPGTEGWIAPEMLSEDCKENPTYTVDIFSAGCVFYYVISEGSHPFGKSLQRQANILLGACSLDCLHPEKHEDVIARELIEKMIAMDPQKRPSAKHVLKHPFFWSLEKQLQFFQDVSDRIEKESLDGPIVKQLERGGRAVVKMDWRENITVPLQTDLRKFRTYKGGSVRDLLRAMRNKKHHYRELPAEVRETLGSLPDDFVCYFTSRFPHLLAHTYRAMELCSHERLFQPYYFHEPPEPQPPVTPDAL

Row | IC50 (IRE1α) | IC50 [1] | SMILES
1 | 0.0031 µM | 0.046 µM | Nc1ncc(C2=CCC(NC3COC3)CC2)c2c1c(-c1ccc(NS(=O)(=O)Cc3ccccc3Cl)c(F)c1)nn2C1CC1 (single isomer, unassigned) [Compound B23, N-(4-(4-amino-1-cyclopropyl-7-(4-(oxetan-3-ylamino)cyclohex-1-en-1-yl)-1H-pyrazolo[4,3-c]pyridin-3-yl)-2-fluorophenyl)-1-(2-chlorophenyl)methanesulfonamide]
2 | 0.053 µM | 0.58 µM | CCn1nc(-c2ccc(NS(=O)(=O)Cc3ccccc3Cl)cc2)c2c(N)ncc(C3=CCC(NC4COC4)CC3)c21 (single isomer, unassigned) [Compound B24, N-(4-(4-amino-1-ethyl-7-(4-(oxetan-3-ylamino)cyclohex-1-en-1-yl)-1H-pyrazolo[4,3-c]pyridin-3-yl)phenyl)-1-(2-chlorophenyl)methanesulfonamide]
3 | 0.0059 µM | 0.078 µM | CCn1nc(-c2ccc(NS(=O)(=O)Cc3ccccc3F)c(F)c2)c2c(N)ncc(C3=CCC(NC4COC4)CC3)c21 (single isomer, unassigned) [Compound B27, N-(4-(4-amino-1-ethyl-7-(4-(oxetan-3-ylamino)cyclohex-1-en-1-yl)-1H-pyrazolo[4,3-c]pyridin-3-yl)-2-fluorophenyl)-1-(2-fluorophenyl)methanesulfonamide]
4 | 0.0074 µM | 0.068 µM | CCn1nc(-c2ccc(NS(=O)(=O)Cc3ccccc3Cl)c(F)c2)c2c(N)ncc(C3=CCC(NC4COC4)CC3)c21 (single isomer, unassigned) [Compound B29, N-(4-(4-amino-1-ethyl-7-(4-(oxetan-3-ylamino)cyclohex-1-en-1-yl)-1H-pyrazolo[4,3-c]pyridin-3-yl)-2-fluorophenyl)-1-(2-chlorophenyl)methanesulfonamide]

Further lines, the compound ahead of its results:

Row | SMILES | IC50 (IRE1α) | IC50 [1]
5 | Cc1ccc(F)c(S(=O)(=O)Nc2ccc(-c3nn(C(C)C)c4c(C5=CCC(NC6COC6)CC5)cnc(N)c34)cc2F)c1 (single isomer, unassigned) [Compound B16, N-(4-(4-amino-1-isopropyl-7-(4-(oxetan-3-ylamino)cyclohex-1-en-1-yl)-1H-pyrazolo[4,3-c]pyridin-3-yl)-2-fluorophenyl)-2-fluoro-5-methylbenzenesulfonamide] | 0.013 µM | 0.11 µM
6 | Cc1ccc(F)c(S(=O)(=O)Nc2ccc(-c3nn(C(C)C)c4c(C5=CCC(NC6COC6)CC5)cnc(N)c34)cc2F)c1 (single isomer, unassigned) [Compound B17, N-(4-(4-amino-1-isopropyl-7-(4-(oxetan-3-ylamino)cyclohex-1-en-1-yl)-1H-pyrazolo[4,3-c]pyridin-3-yl)-2-fluorophenyl)-2-fluoro-5-methylbenzenesulfonamide] | 0.0022 µM | 0.021 µM
7 | Nc1ncc(C2=CCC(NC3COC3)CC2)c2c1c(-c1ccc(NS(=O)(=O)c3ccccc3Cl)c(F)c1)nn2C1CC1 (single isomer, unassigned) [Compound B18, N-(4-(4-amino-1-cyclopropyl-7-(4-(oxetan-3-ylamino)cyclohex-1-en-1-yl)-1H-pyrazolo[4,3-c]pyridin-3-yl)-2-fluorophenyl)-2-chlorobenzenesulfonamide] | 0.0099 µM | 0.082 µM
8 | Nc1ncc(C2=CCC(NC3COC3)CC2)c2c1c(-c1ccc(NS(=O)(=O)c3ccccc3Cl)c(F)c1)nn2C1CC1 (single isomer, unassigned) [Compound B19, N-(4-(4-amino-1-cyclopropyl-7-(4-(oxetan-3-ylamino)cyclohex-1-en-1-yl)-1H-pyrazolo[4,3-c]pyridin-3-yl)-2-fluorophenyl)-2-chlorobenzenesulfonamide] | 0.0035 µM | 0.02 µM
9 | Nc1ncc(C2=CCC(NC3COC3)CC2)c2c1c(-c1ccc(NS(=O)(=O)Cc3ccccc3Cl)c(F)c1)nn2C1CC1 (single isomer, unassigned) [Compound B22, N-(4-(4-amino-1-cyclopropyl-7-(4-(oxetan-3-ylamino)cyclohex-1-en-1-yl)-1H-pyrazolo[4,3-c]pyridin-3-yl)-2-fluorophenyl)-1-(2-chlorophenyl)methanesulfonamide] | 0.0009 µM | 0.01 µM
